Assay results from PubChem BioAssay (NCI).
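Tested at 5 concentrations; 48 h exposure; 96-well plates; endpoints linearly interpolated, else capped at highest concentration. Abbreviation: GI50, concentration required for 50% inhibition of growth. The concentration for full growth arrest is given as TGI.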

Legend:
Experiment in all cases: NCI anticancer screen, dose series, 48 h; in the data active = GI50 below about 0.43 µM; inactive = the rest
A498 renal = test system: A498 renal
UACC-62 melanoma = test system: UACC-62 melanoma
LOX IMVI melanoma = test system: LOX IMVI melanoma
SNB-75 CNS = test system: SNB-75 CNS
RPMI-8226 leukemia = test system: RPMI-8226 leukemia
OVCAR-5 ovarian = test system: OVCAR-5 ovarian
NCI-H23 lung = test system: NCI-H23 lung
COLO 205 colon = test system: COLO 205 colon
RXF 393 renal = test system: RXF 393 renal
MALME-3M melanoma = test system: MALME-3M melanoma
KM12 colon = test system: KM12 colon
OVCAR-4 ovarian = test system: OVCAR-4 ovarian
SK-OV-3 ovarian = test system: SK-OV-3 ovarian
MDA-MB-435 = test system: MDA-MB-435
M14 melanoma = test system: M14 melanoma
OVCAR-8 ovarian = test system: OVCAR-8 ovarian
HS 578T breast = test system: HS 578T breast
SNB-19 CNS = test system: SNB-19 CNS
DU-145 prostate = test system: DU-145 prostate
SW-620 colon = test system: SW-620 colon
HOP-62 NSCLC = test system: HOP-62 NSCLC
K-562 leukemia = test system: K-562 leukemia
SK-MEL-5 melanoma = test system: SK-MEL-5 melanoma
786-0 renal = test system: 786-0 renal
ACHN renal = test system: ACHN renal
SF-539 CNS = test system: SF-539 CNS
T-47D breast = test system: T-47D breast
MDA-MB-231 breast = test system: MDA-MB-231 breast
U251 CNS = test system: U251 CNS
CCRF-CEM leukemia = test system: CCRF-CEM leukemia
HCT-116 colon = test system: HCT-116 colon
OVCAR-3 ovarian = test system: OVCAR-3 ovarian
NCI/ADR-RES ovarian = test system: NCI/ADR-RES ovarian
SF-268 CNS = test system: SF-268 CNS
HOP-92 NSCLC = test system: HOP-92 NSCLC
SK-MEL-2 melanoma = test system: SK-MEL-2 melanoma
EKVX NSCLC = test system: EKVX NSCLC
A549 NSCLC = test system: A549 NSCLC
MCF7 breast = test system: MCF7 breast
SK-MEL-28 melanoma = test system: SK-MEL-28 melanoma
NCI-H460 lung = test system: NCI-H460 lung
UO-31 renal = test system: UO-31 renal
UACC-257 melanoma = test system: UACC-257 melanoma
BT-549 breast = test system: BT-549 breast
SN12C renal = test system: SN12C renal
HCC-2998 colon = test system: HCC-2998 colon
NCI-H226 lung = test system: NCI-H226 lung
HL-60(TB) leukemia = test system: HL-60(TB) leukemia
HCT-15 colon = test system: HCT-15 colon
HT29 colon = test system: HT29 colon
TK-10 renal = test system: TK-10 renal
SF-295 CNS = test system: SF-295 CNS
NCI-H522 lung = test system: NCI-H522 lung
PC-3 prostate = test system: PC-3 prostate
IGROV1 ovarian = test system: IGROV1 ovarian

Cn1c2c(c3ccc(-c4ccn[nH]4)cc3c1=O)C(=O)c1ccccc1-2
3.37 µM: TGI (NCI-H460 lung)
4.78 µM: TGI (LOX IMVI melanoma)
3.04 µM: TGI (A549 NSCLC)
76.3 µM: TGI (OVCAR-3 ovarian)
8.78 µM: TGI (BT-549 breast)
5.68 µM: TGI (SK-MEL-5 melanoma)
5.39 µM: TGI (NCI-H226 lung)
68.6 µM: TGI (TK-10 renal)
4.85 µM: TGI (HT29 colon)
5.53 µM: TGI (HL-60(TB) leukemia)
34.6 µM: TGI (OVCAR-8 ovarian)
11.4 µM: TGI (SF-539 CNS)
10.5 µM: TGI (U251 CNS)
64.7 µM: TGI (MDA-MB-231 breast)
4.79 µM: TGI (RPMI-8226 leukemia)
active: GI50 (MCF7 breast) 0.408 µM
9.93 µM: TGI (HOP-92 NSCLC)
17.3 µM: TGI (SNB-19 CNS)
9.89 µM: TGI (HOP-62 NSCLC)
19 µM: TGI (HCT-116 colon)
23.8 µM: TGI (NCI-H522 lung)
8.86 µM: TGI (SN12C renal)
> 100 µM: TGI (A498 renal) | TGI (UACC-62 melanoma) | TGI (SNB-75 CNS) | TGI (OVCAR-5 ovarian) | TGI (NCI-H23 lung) | TGI (COLO 205 colon) | TGI (RXF 393 renal) | TGI (MALME-3M melanoma) | TGI (KM12 colon) | TGI (OVCAR-4 ovarian) | TGI (SK-OV-3 ovarian) | TGI (MDA-MB-435) | TGI (M14 melanoma) | TGI (HS 578T breast) | TGI (DU-145 prostate) | TGI (SW-620 colon) | TGI (K-562 leukemia) | TGI (T-47D breast) | TGI (CCRF-CEM leukemia) | TGI (NCI/ADR-RES ovarian) | TGI (SF-268 CNS) | TGI (SK-MEL-2 melanoma) | TGI (EKVX NSCLC) | TGI (MCF7 breast) | TGI (SK-MEL-28 melanoma) | TGI (UO-31 renal) | TGI (UACC-257 melanoma) | TGI (HCC-2998 colon) | TGI (HCT-15 colon) | TGI (SF-295 CNS) | TGI (PC-3 prostate) | TGI (IGROV1 ovarian)
inactive: GI50 (A498 renal) 6.44 µM | GI50 (UACC-62 melanoma) 3.1 µM | GI50 (LOX IMVI melanoma) 1.06 µM | GI50 (SNB-75 CNS) 6.18 µM | GI50 (RPMI-8226 leukemia) 1.77 µM | GI50 (OVCAR-5 ovarian) 5.08 µM | GI50 (NCI-H23 lung) 2.64 µM | GI50 (COLO 205 colon) 5.51 µM | GI50 (RXF 393 renal) 3.61 µM | GI50 (MALME-3M melanoma) 4.21 µM | GI50 (KM12 colon) 2.34 µM | GI50 (OVCAR-4 ovarian) 7.65 µM | GI50 (SK-OV-3 ovarian) 5.21 µM | GI50 (MDA-MB-435) 7.51 µM | GI50 (M14 melanoma) 3.6 µM | GI50 (OVCAR-8 ovarian) 1.78 µM | GI50 (HS 578T breast) 6.84 µM | GI50 (SNB-19 CNS) 2.71 µM | GI50 (DU-145 prostate) 1.71 µM | GI50 (SW-620 colon) 2.15 µM | GI50 (HOP-62 NSCLC) 1.92 µM | GI50 (K-562 leukemia) 2.17 µM | GI50 (SK-MEL-5 melanoma) 1.76 µM | GI50 (786-0 renal) 1.49 µM | GI50 (ACHN renal) 1.34 µM | GI50 (SF-539 CNS) 2.28 µM | GI50 (T-47D breast) 2.86 µM | GI50 (MDA-MB-231 breast) 4.46 µM | GI50 (U251 CNS) 1.66 µM | GI50 (CCRF-CEM leukemia) 0.832 µM | GI50 (HCT-116 colon) 1.52 µM | GI50 (OVCAR-3 ovarian) 5.97 µM | GI50 (NCI/ADR-RES ovarian) 3.78 µM | GI50 (SF-268 CNS) 3.21 µM | GI50 (HOP-92 NSCLC) 2.84 µM | GI50 (SK-MEL-2 melanoma) > 100 µM | GI50 (EKVX NSCLC) 2.95 µM | GI50 (A549 NSCLC) 1.03 µM | GI50 (SK-MEL-28 melanoma) 42.5 µM | GI50 (NCI-H460 lung) 0.494 µM | GI50 (UO-31 renal) 1.5 µM | GI50 (UACC-257 melanoma) 7.79 µM | GI50 (BT-549 breast) 2.29 µM | GI50 (SN12C renal) 2.1 µM | GI50 (HCC-2998 colon) 11.6 µM | GI50 (NCI-H226 lung) 1.83 µM | GI50 (HL-60(TB) leukemia) 0.813 µM | GI50 (HCT-15 colon) 1.51 µM | GI50 (HT29 colon) 1.52 µM | GI50 (TK-10 renal) 4.02 µM | GI50 (SF-295 CNS) 3.81 µM | GI50 (NCI-H522 lung) 2.22 µM | GI50 (PC-3 prostate) 4.28 µM | GI50 (IGROV1 ovarian) 2.18 µM
4.46 µM: TGI (786-0 renal)
5.78 µM: TGI (ACHN renal)
